The values below come from patent US9283289B2, “Self-quenching activatable COX-2-specific multi-modal molecular probes for diagnosis of cancers, inflammation, and immune system disorders” (The Board of Trustees of the Leland Stanford Junior …, priority 2012, dated 2016).

Data set [1] in a line: LC/MS-MS quantification in mouse blood after topical application. It counts as in vivo.
The test system of data set [2] is basal cell carcinoma (BCC), squamous cell carcinoma (SCC) and melanoma tumors. The experiment in a line: In vivo fluorescence imaging of skin tumors after systemic (retro-orbital) injection of the probe. On the set-up: species or system mouse. From the text:
Imaging agents based on the well-characterized COX-2 inhibitors can be used for the early detection of skin cancer and help define tumor margins. […] A continuing problem is the detection of small tumors that are indistinguishable over non-specific background fluorescence.
FIGS. 1A and 1B illustrate in vivo detection of Fluorocoxib accumulation in Basal Cell Carcinoma Imaging with CRi Maestro. FIG. 1A: Histology and identification of tumor cell; FIG. 1B: from lesion 3 (arrows).
However, for skin or other epithelial applications, as well as to improve on its TBR on systemic administration, it is desirable to limit the non-specific signal. To overcome this undesirable background fluorescent signal that can mask signals from smaller tumors and other sites having low-level expression of COX-2, the present disclosure provides molecular probes wherein the fluorescent COX-2-specific construct comprises a fluorescent quencher linked to the probe by a cleavable linker. Upon entry into a cell and binding of the Fluorocoxib to COX-2, the quencher can be displaced from the vicinity of the fluorophore by, for example, a cytoplasmic peptidase cleavage of the cleavable linker, allowing the generation of a detectable fluorescent signal. […]
The capability of this probe to detect early stage skin tumors that cannot be detected by visual inspection was investigated. […]

Consider 5-Rox-D-indomethacin [Fluorocoxib A], for which, in data set [1], the “level in mouse blood” value was “undetectable”. Also, the “size of small tumors visualized” value in data set [2] (genetically engineered mouse model of non-melanoma skin cancer, systemic administration, 1 mg/kg) was “approximately 100 μm”. The “fluorescence detection in tumor areas” value in data set [2] (three hours after retro-orbital injection, in vivo imaging and tissue histology) is listed as “selectively detected”.
